Source: patent US3965109A, “Certain aryl amino pyridines” (priority 1971, dated 1976)

How the values were obtained:
[1] = system: Puccinia recondita (wheat); assay: Fungicidal test against foliar disease A (foliage spray plus soil drench); format: in vivo; details: 100 ppm spray and drench; 10 days
[2] = system: Phytophthora infestans (tomato); format: in vivo; details: 100 ppm spray and drench; 3 days
[3] = system: Plasmopara viticola (vine); assay: Fungicidal test against foliar disease C (foliage spray plus soil drench); format: in vivo; details: 100 ppm spray and drench; 10 days
Uncinula necator (vine) = assay: Fungicidal test against foliar disease D (foliage spray plus soil drench); format: in vivo; details: 100 ppm spray and drench; 10 days
[4] = system: Piricularia oryzae (rice); format: in vivo; details: 100 ppm spray and drench; 7 days
[5] = system: Tetranychus telarius (red spider mites, adults); assay: Pest toxicity test; format: in vivo; details: 0.1% by weight; French bean; 3 days
[6] = system: Tetranychus telarius (red spider mites, eggs); assay: Pest toxicity test; format: in vivo; details: 0.1% by weight; French bean; 3 days
Aphis fabae = assay: Pest toxicity test; format: in vivo; details: 0.1% by weight; broad bean; 2 days
Megoura viceae = assay: Pest toxicity test; format: in vivo; details: 0.1% by weight; broad bean; 2 days
[7] = system: Aedes aegypti (mosquito larvae); assay: Pest toxicity test; format: in vivo; details: 0.01% by weight; water; 1 day
[8] = system: Aedes aegypti (mosquito adults); assay: Pest toxicity test; format: in vivo; details: 0.01% by weight; plywood; 1 day
[9] = system: Musca domestica (houseflies); assay: Pest toxicity test, contact test; format: in vivo; details: 0.1% by weight; milk/sugar; 2 days; flies sprayed directly
[10] = system: Pieris brassicae (cabbage white caterpillars); assay: Pest toxicity test; format: in vivo; details: 0.1% by weight, 2 days
[11] = system: Plutella maculipennis (diamond back moth larvae); assay: Pest toxicity test; format: in vivo; details: in vivo
[12] = system: Phaedon cochleariae (mustard beetles); assay: Pest toxicity test; format: in vivo; details: in vivo
[13] = system: Meloidogyne incognita (nematodes); assay: Pest toxicity test; format: in vivo; details: 0.01% by weight; water; 1 day
[14] = system: Agrobacterium tumifaciens; assay: Antibacterial agar test (B1); format: cell-based; details: 50 ppm; 5 days
[15] = system: Corynebacterium michiganense; assay: Antibacterial agar test (B2); format: cell-based; details: 50 ppm; 5 days
Summary of the method: (§1)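 Compound was dissolved or suspended in acetone and mixed into nutrient agar to 50 ppm final, then dried overnight in Petri dishes. Plates were inoculated with the bacteria via multipoint inoculator and antibacterial activity was graded after 5 days.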

Xanthomonas malvacearum = assay: Antibacterial agar test (B3); format: cell-based; details: 50 ppm; 5 days
Summary of the method: as §1

Erwinia carotovora = assay: Antibacterial agar test (B4); format: cell-based; details: 50 ppm; 5 days
Xanthomonas oryzae = format: cell-based; details: 50 ppm; 5 days
Pseudomonas syringae = assay: Antibacterial agar test (B6); format: cell-based; details: 50 ppm; 5 days
Streptomyces scabies = assay: Antibacterial agar test (B7); format: cell-based; details: 50 ppm; 5 days
[16] = system: Agriolimax reticulatus (slugs); assay: Molluscicidal activity test; format: in vivo, Agriolimax reticulatus (Mull); details: pellet with 4% by weight; 6 days; 10°C
Summary of the method: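 Compound was applied to a calf feeding pellet at 4% by weight active ingredient after 24 h air drying. Two replicates, each of 2 slugs starved 24 h, were kept with a moist filter paper at 10°C, and kill was assessed after 6 days.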

SMILES | Amount of disease grading, disease A (Table 4) [1] | Amount of disease grading, disease B (Table 4) [2] | Amount of disease grading, disease C (Table 4) [3] | Amount of disease grading, disease D (Table 4) (Uncinula necator (vine)) | Amount of disease grading, disease E (Table 4) [4] | Mortality grading (kill) [5] | Mortality grading (kill) [6] | Mortality grading (kill) (Aphis fabae) | Mortality grading (kill) (Megoura viceae) | Mortality grading (kill) [7] | Mortality grading (kill) [8] | Mortality grading (kill), contact test [9] | Mortality grading (kill) [10] | Mortality grading (kill) [11] | Mortality grading (kill) [12] | Mortality grading (kill) [13] | Antibacterial activity grading B1 [14] | Antibacterial activity grading B2 [15] | Antibacterial activity grading B3 (Xanthomonas malvacearum) | Antibacterial activity grading B4 (Erwinia carotovora) | also measured
O=[N+]([O-])c1cc(Cl)c(Nc2c(Cl)c(F)nc(F)c2Cl)cc1Cl [Compound 24, 3,5-Dichloro-2,6-difluoro-4(2,5-dichloro-4nitro-anilino)pyridine] | 0 (61 to 100) | 3 (0 to 5) | 3 (0 to 5) | 3 (0 to 5) | 0 (61 to 100) | 3 (3 represents over 90% kill) | 0 (O represents less than 30% kill) | 0 (O represents less than 30% kill) | 0 (O represents less than 30% kill) | 3 (3 represents over 90% kill) | 0 (O represents less than 30% kill) | 1 (1 represents 30 - 49% kill) | 0 (O represents less than 30% kill) | 0 (key: O represents less than 30% kill; 1 represents 30 - 49% kill; 2 represents 60 - 90% kill; 3 represents over 90% kill; C indicates a chemosterilant effect.; A indicates an antifeeding effect.) | 0 (key: O represents less than 30% kill; 1 represents 30 - 49% kill; 2 represents 60 - 90% kill; 3 represents over 90% kill; C indicates a chemosterilant effect.; A indicates an antifeeding effect.) | 0 (O represents less than 30% kill) | 3 (0 to 5) | 3 (0 to 5) | 3 (0 to 5) | 3 (0 to 5) | Antibacterial activity grading B5 (Xanthomonas oryzae): 3 (0 to 5); Antibacterial activity grading B6 (Pseudomonas syringae): 3 (0 to 5); Antibacterial activity grading B7 (Streptomyces scabies): 3 (0 to 5)
Fc1nc(F)c(Cl)c(Nc2c(F)c(F)c(Br)c(F)c2F)c1Cl [Compound 30, 4(4-Bromo-2,3,5,6-tetrafluoroanilino)-3,5-dichloro-2,6-difluoropyridine] | 0 (61 to 100) | 1 (26 to 60) | 3 (0 to 5) | 0 (61 to 100) | 0 (61 to 100) | 3 (3 represents over 90% kill) | 0 (O represents less than 30% kill) | 0 (O represents less than 30% kill) | 0 (O represents less than 30% kill) | 3 (3 represents over 90% kill) | 2 (2 represents 60 - 90% kill) | 0 (O represents less than 30% kill) | 3 (3 represents over 90% kill) | 1 (key: O represents less than 30% kill; 1 represents 30 - 49% kill; 2 represents 60 - 90% kill; 3 represents over 90% kill; C indicates a chemosterilant effect.; A indicates an antifeeding effect.) | 0 (key: O represents less than 30% kill; 1 represents 30 - 49% kill; 2 represents 60 - 90% kill; 3 represents over 90% kill; C indicates a chemosterilant effect.; A indicates an antifeeding effect.) | 3 (3 represents over 90% kill) |  |  |  |  | % Kill of slugs [16]: 100%
O=[N+]([O-])c1cc(C(F)(F)F)ccc1Nc1c(Cl)c(F)nc(F)c1Cl [Compound 16, 3,5-Dichloro-2,6-difluoro-4(2-nitro-4-trifluoromethylanilino) pyridine] |  |  |  |  |  | 2 (2 represents 60 - 90% kill) | 0 (O represents less than 30% kill) | 0 (O represents less than 30% kill) | 0 (O represents less than 30% kill) | 0 (O represents less than 30% kill) | 0 (O represents less than 30% kill) | 0 (O represents less than 30% kill) | 0 (O represents less than 30% kill) | 0 (key: O represents less than 30% kill; 1 represents 30 - 49% kill; 2 represents 60 - 90% kill; 3 represents over 90% kill; C indicates a chemosterilant effect.; A indicates an antifeeding effect.) | 0 (key: O represents less than 30% kill; 1 represents 30 - 49% kill; 2 represents 60 - 90% kill; 3 represents over 90% kill; C indicates a chemosterilant effect.; A indicates an antifeeding effect.) | 2 (2 represents 60 - 90% kill) |  |  |  |  | Amount of disease grading, disease A [1]: 0 (61 to 100); Amount of disease grading, disease B [2]: 0 (61 to 100); Amount of disease grading, disease C [3]: 3 (0 to 5); Amount of disease grading, disease D (Uncinula necator (vine)): 0 (61 to 100); Amount of disease grading, disease E [4]: 0 (61 to 100); % Kill of slugs [16]: 50%
N#Cc1c(F)c(F)c(Nc2c(Cl)c(F)nc(F)c2Cl)c(F)c1C#N [Compound 33, 3,5-Dichloro-4(3,4-dicyano-2,5,6-trifluoroanilino) 2,6-difluoropyridine] | 2 (6 to 25) | 3 (0 to 5) | 3 (0 to 5) | 2 (6 to 25) | 3 (0 to 5) | 3 (3 represents over 90% kill) | 3 (3 represents over 90% kill) | 0 (O represents less than 30% kill) | 0 (O represents less than 30% kill) | 0 (O represents less than 30% kill) | 2 (2 represents 60 - 90% kill) |  | 3 (3 represents over 90% kill) | 1 (key: O represents less than 30% kill; 1 represents 30 - 49% kill; 2 represents 60 - 90% kill; 3 represents over 90% kill; C indicates a chemosterilant effect.; A indicates an antifeeding effect.) | 0 (key: O represents less than 30% kill; 1 represents 30 - 49% kill; 2 represents 60 - 90% kill; 3 represents over 90% kill; C indicates a chemosterilant effect.; A indicates an antifeeding effect.) | 0 (O represents less than 30% kill) | 3 (0 to 5) | 3 (0 to 5) | 3 (0 to 5) | 3 (0 to 5) | Antibacterial activity grading B5 (Xanthomonas oryzae): 3 (0 to 5); Antibacterial activity grading B6 (Pseudomonas syringae): 3 (0 to 5); Antibacterial activity grading B7 (Streptomyces scabies): 3 (0 to 5)
